Like-named read-outs stand apart in the source and are kept apart here.

This is an account of results in patent publication US5428029A, “Vitamin D3 fluorinated analogs” (Hoffmann-La Roche Inc., priority 1993, dated 1995).

The subject of experiment [1] is HL-60 tumor cell line. The experiment in a line: HL-60 Differentiation Assay. To be noted: 4 days; for EC50: Homo sapiens, 96 h, HL-60 differentiation, read-out: Approximate ED50. In kind it is cell-based, human. The protocol:
HL-60 Differentiation Assay:
The HL-60 tumor cell line was originally derived from a patient with promyleocytic leukemia and purchased from American Type Culture Collection (ATCC CCL240). […] For experimentation, cells were seeded at 0.9×10^6 cells per 25 cm^2 flask in medium supplemented with 0.25 mM sodium ascorbate. […] All compounds were handled in the following manner. Stock solutions were made of 10^-3 M solutions in ethanol and stored in amber vials overlaid with argon at -20° C. Stock solutions were diluted into medium at concentrations indicated. All flasks were supplemented with vehicle at a concentration of 0.1% ethanol. Control flasks were supplemented with vehicle alone at a concentration of 0.1% ethanol. Flasks were incubated upright for 4 days in 5% CO 2 at 37° C. On day 4, a 1 ml aliquot of cells was removed from the flasks, centrifuged for about 10 minutes, the media removed and the cells resuspended in a 0.2 ml of solution of nitroblue tetrazolium/phorbol 12 myristate 13-acetate (NBT/TPA) in media prepared on the day of enumeration as follows. Nitroblue tetrazolium was dissolved in media at 1 mg/ml. To this solution was added TPA to a final concentration of 100 ng/ml. This solution was kept in a covered vial on ice. The cells were suspended and incubated at 37° C. for 30 min. prior to transferring to ice. An aliquot was removed and the cells are counted using a hemocytometer. Cells without pigmented granules are judged to be undifferentiated while those containing blue black formazan (indicating conversion of NBT) granules were scored as differentiated. Results are expressed as percent differentiated cells by calculating the ratio of the number of dark cells per total number of cells counted.

Experiment [2] has as its system human neonatal keratinocytes. Briefly: Human Keratinocyte Antiproliferative Assay. In kind it is cell-based. To be noted: for IC50: read-out: average ED50 (Dose that would obtain 50% of the number of cells as compared to the control). The protocol: Human Keratinocyte Antiproliferative Assay
Cultures were obtained from neonatal foreskin epithelial keratinocytes using standard procedures.
Human neonatal foreskins were collected by circumcision and placed into tubes containing Dulbecco's minimum essential Media (DMEM) with 10% serum. Upon arrival at the laboratory, they were mechanically trimmed of excess dermis, and treated with a solution of trypsin/ethylenediamine tetraacetic acid (EDTA) (0.05%/0.02%) at 4° C. overnight. The epidermis was stripped from the dermis, agitated in buffered saline to remove basal keratinocytes and the stratum corneum later removed. […] The cultures are incubated in humidified chambers with 5% CO2 at 37° C. with refeeding fresh media 2 to 3 times per week.
Antiproliferation Assay Protocol:
Approximately twenty-four hours after passage, the cells were refed with fresh KGM media supplemented to 1.5 mM CaCl2 that contains test compound or vehicle. Solutions of test compounds were prepared as follows: 1 milligram quantities were received in amber glass vials and stored at -20° C. Sufficient 100% ethanol was added directly to vials to obtain a millimolar solution that was subsequently aliquoted into small amber vials, overlayed with argon gas and stored at -20° C. Each stock solution was thawed once, used and discarded. Stock solutions were used within 4 to 6 weeks. Aliquots from the stock solution were diluted directly into medium and then serially diluted from micromolar to picomolar concentrations. […] Control wells are supplemented with vehicle alone at the highest concentration such as 0.1% ethanol. At the termination of the experiment prior to the cultures reaching confluency, the cells were enumerated by the following procedure. Dishes were washed with phosphate buffered saline, and then incubated with trypsin/EDTA solution for 30 minutes. Cells were suspended and an aliquot placed into isotonic buffered saline and counted on an electronic particle counter (Coulter Counter). The counter was periodically calibrated for the correct size of keratinocytes. Each well was counted in triplicate.

In experiment [3] the test system is sebaceous cells. Briefly: Inhibition of proliferation of sebaceous cells in vitro. The note with it: Homo sapiens, read-out: ED50 (amount of compound necessary to inhibit the proliferation of the sebaceous cells by 50%). The format is cell-based. The protocol: Sebaceous cells were isolated from adult human sebaceous glands, derived from facial skin removed during cosmetic surgery. This method is described in an article by Doran et al. in J. Invest. Dermatol. 96:341-348 (1991).
The cells were cultured in Iscove's medium containing 10% fetal calf serum and 4 μg/ml dexamethasone on a layer of growth-arrested 3T3 mouse fibroblasts.
Cells were plated in medium without the test compound and then given the compound in fresh medium 24-48 hours after the initial plating. The cultures were given fresh medium, containing the test compound, every 48 hours. On the day of harvesting, the cultures were rinsed with 0.03% ethylenediamine tetraacetic acid (EDTA) in phosphate buffered saline (PBS), to remove only the 3T3 fibroblasts. The remaining sebocyte colonies were incubated in 0.05% trypsin/0.03% EDTA to create a single cell suspension of sebocytes. The cells were diluted, mixed vigorously to maintain a single cell suspension, and counted in a hemocytometer.
All compounds were handled in the following manner. Stock solutions were made up as 10^-2 M solutions in degassed 100% ethanol and stored at -20° C. in the dark. Solutions were never used after storage of more than a month. During experimental use the solutions, which had been aliquoted, were thawed once and used by diluting directly into complete medium to the appropriate concentration. […]

Experiment [4] has as its system T47-D cells. Briefly: Tetrazolium based MTT assay, inhibition of cell growth, T47-D. To be noted: Homo sapiens, T47D. The method, then: (§1) TETRAZOLIUM BASED MTT ASSAY
T47-D (breast ductal carcinoma) were grown in RPMI-1640 medium supplemented with 10 μg/ml bovine insulin and 10% fetal bovine serum (FBS).
(§2) Cells were grown in appropriate medium to late log phase (about 80% confluency). T47-D or MCF-7 cells were then trypsinized and seeded at 4,000 or 2,000 cells/well, respectively.
(§3) Tetrazolium Based MTT Assay:
(§4) At 24 hours post seeding, serial dilutions of ethanol-solubilized drugs are prepared in the same medium and added to triplicate wells at a final concentration of 1,000 to 0.1 nM and 0.1% ethanol. On days 3 to 7 post drug addition, 50 μl of a 5 mg/ml MTT solution (3-(4,5-dimethylthiazol-2-yl)-2,5-diphenyl tetrazolium bromide in phosphate-buffered saline) is added to each well and incubation is continued at 37° C. for 2.5 hours. The plates are then spun briefly by centrifugation at 800 xg for 5 minutes, medium is aspirated from wells, and 50 μl ETOH/well is added to dissolve the formazan formed during the incubation period with MTT. After a 15 minute shaking, the optical density is determined for each well in an automatic plate reader at 570 and 660 nm. Percent inhibition of cell growth is calculated by comparing optical densities of cells treated with test compounds to those of cells treated only with 0.1% ethanol. IC50 values are determined based on the Reed and Muench formula (Am. J. Hyg. 27:493-497 1938) and the results of two independent experiments are presented below: […]

Experiment [5] concerns MCF-7 cells. Briefly: Tetrazolium based MTT assay, inhibition of cell growth, MCF-7. The note with it: Homo sapiens, MCF7, Exp. 2. The method, then: as §1
MCF-7 (breast adenocarcinoma) were grown in MEM (Eagle) supplemented with non-essential amino acids, 1 mM sodium pyruvate, […] bovine insulin and 10% FBS
as §2, §3, §4
In general terms: Tetrazolium assays rely on reduction of a dye to a coloured formazan, in cell work by metabolically active cells.

Setting [6] is: Homo sapiens, Keratinocyte, read-out: % of Control.

For the compound `C=C1/C(=C\C=C2/CCC[C@]3(C)[C@@H]([C@H](C)CCCC(C)(C)O)CC[C@@H]23)C[C@@H](O)C[C@@H]1O` [1,25-dihydroxy-cholecalciferol, 1,25-dihydroxycholecalciferol, reference compound], the “Percent Positive Cells” value in experiment [1] (Dose 0.1 nM) is listed as 2.0%; in experiment [1] (Dose 0.3 nM) it was 5.0%; in experiment [1] (Dose 1.0 nM), 3.5%; in experiment [1] (Dose 10.0 nM) it was 26.0%; in experiment [1] (Dose 100.0 nM) it was 84.0%. The EC50 in experiment [1] was roughly 25 nM. Besides, the “Avg Cell No.” value in experiment [2] (Dose 10 nM) worked out at 4.60E+05; in experiment [2] (Dose 30 nM), 3.90E+05; in experiment [2] (Dose 100 nM) it was 3.12E+05; in experiment [2] (Dose 300 nM), 2.51E+05; in experiment [2] (Dose 1000 nM) it was 7.19E+05. Moreover, in experiment [2] (setting [6]), the activity at 0.01 µM worked out at 94.3%. Besides, the activity at 0.03 µM in experiment [2] (setting [6]) is 79.9%. In experiment [2] (setting [6]), the activity at 0.1 µM was 64%. In experiment [2] (setting [6]), the activity at 0.3 µM is 51.4%. In addition, the activity at 1 µM in experiment [2] (setting [6]) is 14.7%. For the same compound, the IC50 stood at 300 nM in experiment [2] (Homo sapiens, Keratinocyte) and 50 nM in experiment [3].

Regarding `C=C1/C(=C\C=C2/CCC[C@]3(C)C([C@H](C)CC#CC(O)(C(F)(F)F)C(F)(F)F)=CC[C@@H]23)C[C@@H](O)C[C@@H]1O` [1,25-dihydroxy-16-ene-23 yne-26,27-hexafluoro-cholecalciferol, reference compound], the IC50 in experiment [4] (Exp. 1) was determined as 0.63 nM; in experiment [4] (Exp. 2), 0.95 nM; in experiment [5], 0.42 nM.

Consider `C=C1/C(=C\C=C2/CCC[C@]3(C)C([C@H](C)C/C=C/C(O)(C(F)(F)F)C(F)(F)F)=CC[C@@H]23)C[C@@H](O)C[C@@H]1O` [1,25-Dihydroxy-16,23E-diene-26,27-hexafluorocholecalciferol], for which the “Percent Positive Cells” value in experiment [1] (Dose 0.1 nM) came to 6.0%; in experiment [1] (Dose 0.3 nM) it was 30.5%; in experiment [1] (Dose 1.0 nM), 63.0%; in experiment [1] (Dose 10.0 nM) it was 79.0%; in experiment [1] (Dose 100.0 nM), 89.5%. Also, the EC50 in experiment [1] is roughly 0.6 nM. Also, the “Avg Cell No.” value in experiment [2] (Dose 0.0001 nM) is given as 4.57E+05; in experiment [2] (Dose 0.001 nM), 4.41E+05; in experiment [2] (Dose 0.01 nM) it was 5.42E+05; in experiment [2] (Dose 0.1 nM), 5.03E+05; in experiment [2] (Dose 1.0 nM) it was 2.87E+05; in experiment [2] (Dose 10 nM) it was 2.29E+05. The “Avg Cell No.” value in experiment [2] (Dose 100 nM) was found to be 2.03E+05; in experiment [2] (Dose 1000 nM), 3.04E+05. The activity at 100 fM in experiment [2] (Homo sapiens, Keratinocyte, Dose 0.0001 nM, read-out: % of Control) came to 93.7%. The activity at 1 pM in experiment [2] (Homo sapiens, Keratinocyte, Dose 0.001 nM, read-out: % of Control) turned out to be 90.3%. Also, the activity at 10 pM in experiment [2] (Homo sapiens, Keratinocyte, Dose 0.01 nM, read-out: % of Control) was 111%. Moreover, the activity at 0.0001 µM in experiment [2] (Homo sapiens, Keratinocyte, Dose 0.1 nM, read-out: % of Control) was determined as 103%. Also, the activity at 0.001 µM in experiment [2] (Homo sapiens, Keratinocyte, Dose 1.0 nM, read-out: % of Control) is 58.7%. The activity at 0.01 µM in experiment [2] (Homo sapiens, Keratinocyte, Dose 10 nM, read-out: % of Control) turned out to be 47%. Moreover, in experiment [2] (Homo sapiens, Keratinocyte, Dose 100 nM, read-out: % of Control), the activity at 0.1 µM turned out to be 41.6%. Moreover, the activity at 1 µM in experiment [2] (Homo sapiens, Keratinocyte, Dose 1000 nM, read-out: % of Control) stood at 6.23%. Also, the IC50 is 2 nM in experiment [2] (Keratinocyte, human keratinocytes); less than 0.1 nM in experiment [4] (Exp. 1); 0.9 nM in experiment [4] (Exp. 2); 0.05 nM in experiment [5]; less than 1 nM in experiment [3] (compared to vehicle treated control culture).

Take `C[C@H](C/C=C/C(O)(C(F)(F)F)C(F)(F)F)C1=CC[C@H]2/C(=C/C=C3C[C@@H](O)C[C@H](O)C3)CCC[C@]12C` [1,25-Dihydroxy-16,23E-diene-26,27-hexafluoro-19-norcholecalciferol]: the IC50 in experiment [4] (Exp. 1) was 0.26 nM; in experiment [4] (Exp. 2), 2.2 nM; in experiment [5], 0.15 nM.

As to `C=C1/C(=C\C=C2/CCC[C@]3(C)C([C@H](C)C/C=C/C(O)(C(F)(F)F)C(F)(F)F)=CC[C@@H]23)C[C@@H](O)C[C@@H]1F` [1α-Fluoro-25-hydroxy-16,23E-diene-26,27-hexafluorocholecalciferol], the IC50 in experiment [5] worked out at 0.38 nM.
